In patent US20030026786A1, “CHONDROGENIC DIFFERENTIATION OF HUMAN MESENCHYMAL STEM CELLS” (priority 1999, published 2003):
Entries after “also recorded” stand apart in the source; their conditions may differ.

Legend:
hMSCs in pellet culture = assay: Induction of hypertrophy in hMSC pellet culture by sequential treatment with two media; assay type: cell-based, human; settings: for inducing hypertrophy: other preliminary experiments
[1] = test system: human mesenchymal stem cells (hMSCs); assay: hMSC pellet culture in chondrogenic medium with low or high sugar concentration (pellet size, type II collagen immunostaining, toluidine blue); assay type: cell-based; settings: low-glucose medium supplemented with 3.5 g/l fructose; compared with high-glucose medium (4.5 g/l glucose)
Experimental: The hMSCs in pellet culture that are undergoing chondrogenic differentiation express the extracellular matrix proteoglycans mentioned above. […] In FIG. 1, the increase in the size of the cell pellet is evident when the medium contains “high glucose”. Changes in the size of hMSC pellets reflect the extent of synthesis of extracellular matrix components. Each pellet was formed by transferring an aliquot of 200,000 cells into ½ ml chondrogenic medium with 1 g/l (5.5 mM) glucose (left) or 4.5 g/l (25 mM) glucose ( right). The chondrogenic medium consisted of DMEM with the stated concentration of glucose and the following supplements: 100 nM dexamethasone, 10 ng/ml Transforming Growth Factor)β, 1 mM sodium pyruvate, 5 μg/ml ascorbic acid-2-phosphate, and 40 μg/ml proline. A 1:99 dilution of “ITS+” supplied 6.25 μg/ml bovine insulin, 6.25 μg/ml transferrin, […], 5.33 μg/ml linoleic acid, and 1.25 mg/ml bovine serum albumin. Final concentrations of 100 U/ml penicillin, 100 μg/ml streptomycin, and 250 ng/ml amphotericin B were supplied by a 1:99 dilution of a concentrated antibiotic solution. The cells and medium were placed into a 15 ml polypropylene conical-bottom centrifuge tube, and gently centrifuged (500× g for 5 min.), after which the tubes with loosened caps were placed in a humidified 5% CO2 incubator at 37 C. […]

[2] = test system: Human bone marrow-derived mesenchymal stem cells; assay: Chondrogenic differentiation of MSC pellets with TGF-β1 or TGF-β3 (toluidine blue, collagen and COMP immunostaining); assay type: cell-based; settings: 10 ng/ml
Experimental: Human bone marrow-derived mesenchymal stem cells were cultured under standard conditions in the presence of 10% FBS until confluent. The cells were trypsinized, washed twice with chondrogenic medium, and resuspended at a density of 200,000 cells/ml in 15 ml polypropylene tubes in chondrogenic medium containing either 10 ng/ml TGF-01, TGF-β3 or neither of these. […] Frozen sections (8 μn) were stained with Toluidine blue. They were also stained for the following using standard immunocytochemistry protocols: collagen type 11, collagen type 1, and cartilage oligomeric matrix protein (COMP).

[3] = no TGF-β3, 50 nM thyroxine, 20 mM β-glycerol phosphate, 10^−9 M dexamethasone, compared to standard chondrogenic medium for 28 days

**Q.** `N[C@@H](Cc1cc(I)c(Oc2ccc(O)c(I)c2)c(I)c1)C(=O)O` [T3] was tested. Which inducing hypertrophy (hMSCs in pellet culture) did it give?
**A.** effective

**Q.** With `O=C(CO)[C@@H](O)[C@H](O)[C@H](O)CO` [fructose] as the molecule, how does the “improvement to in vitro chondrogenic differentiation” value [1] read?
**A.** same improvement

**Q.** With `N[C@@H](Cc1cc(I)c(Oc2cc(I)c(O)c(I)c2)c(I)c1)C(=O)O` [thyroxine] as the molecule, how does the hypertrophy (hMSCs in pellet culture; no TGF-β3, 50 nM thyroxine combined with 20 mM β-glycerol phosphate and 10^−9 M dexamethasone, from day 14 to day 28) read?
**A.** hypertrophic differentiation of hMSCs was the predominant pathway; also recorded: more prominent

**Q.** And the “deposition of type X collagen (antibody X53)” value (hMSCs in pellet culture; [3])?
**A.** irregular but pronounced increase

**Q.** And the “staining for type II and type IX collagens” value (hMSCs in pellet culture; [3])?
**A.** intense staining

**Q.** What about the inducing hypertrophy (hMSCs in pellet culture) of the same molecule?
**A.** effective

**Q.** What about the hypertrophic effect (hMSCs in pellet culture; withdrawing TGF-β3 and adding 50 nM thyroxine after two weeks of chondrogenic differentiation, two additional weeks of culture) of the same molecule?
**A.** pronounced hypertrophic effect

**Q.** With “TGF-β1: member of the transforming growth factor-β superfamily, known promoter of cartilage formation” as the molecule, how does the “type II collagen expression” value ([2]; 14 days) read?
**A.** localized expression of type II collagen

**Q.** What about the “type II collagen staining” value ([2]; 21 days in culture) of the same molecule?
**A.** staining throughout the pellet except for the perimeter

**Q.** And the “type II collagen expression” value ([2]; after 8 days in pellet culture)?
**A.** no expression of type II collagen

B1: TGF-β3: transforming growth factor beta-3, chondroinductive agent (protein, UniProt P10600 301-412, looked up)
Transforming growth factor …: ALDTNYCFRNLEENCCVRPLYIDFRQDLGWKWVHEPKGYYANFCSGPCPYLRSADTTHSTVLGLYNTLNPEASASPCCVPQDLEPLTILYYVGRTPKVEQLSNMVVKSCKCS
**Q.** How did the “cell morphology (hypertrophic cells)” value ([2]; 14 days) turn out when B1 was run?
**A.** A large proportion of the cells were hypertrophic

**Q.** And the pellet size ([2]; 14 days)?
**A.** larger in size

**Q.** And the “type II collagen expression” value ([2]; 14 days)?
**A.** expression of type II collagen throughout, except for a central area

**Q.** What about the COMP staining ([2]; 21 days in culture) of the same molecule?
**A.** reduced pericellular staining and increased interterritorial staining

**Q.** And the “type II collagen staining” value ([2]; 21 days in culture)?
**A.** very strong staining

**Q.** What about the “type II collagen expression” value ([2]; after 8 days in pellet culture) of the same molecule?
**A.** some cells-ex fessed type II collagen

**Q.** What about the “effect on chondrogenic differentiation of human MSCs in vitro” value ([2]; up to 21 days) of the same molecule?
**A.** dramatic effect; also recorded: more pronounced
